Measured values taken from ChEMBL document CHEMBL1240303, “Inhibiting transcription of chromosomal DNA with antigene peptide nucleic acids” (2005).
The source made the active and inactive calls. The rule behind the calls is not given here.

Experiments:
[1] = test system: T47D; experiment: Inhibition of human progesterone receptor A protein expression transfected in human T47D cells at 25 nM by Western blot; format: functional, cell-based
[2] = test system: T47D; experiment: Inhibition of human progesterone receptor B protein expression transfected in human T47D cells at 25 nM by Western blot; format: functional, cell-based
[3] = test system: T47D; experiment: Inhibition of human progesterone receptor A protein expression transfected in human T47D cells at 200 nM by Western blot; format: functional
[4] = test system: T47D; experiment: Inhibition of human progesterone receptor B protein expression transfected in human T47D cells at 200 nM by Western blot; format: functional
[5] = test system: T47D; experiment: Inhibition of human progesterone receptor A protein expression transfected in human T47D cells at 200 nM in presence of 10 nM of estradiol by Western blot; format: functional, cell-based
[6] = test system: T47D; experiment: Inhibition of human progesterone receptor B protein expression transfected in human T47D cells at 200 nM in presence of 10 nM of estradiol by Western blot; format: functional, cell-based
[7] = test system: T47D; experiment: Inhibition of human progesterone receptor A gene expression transfected in human T47D cells at 200 nM by RT-PCR; format: functional, cell-based
[8] = test system: T47D; experiment: Inhibition of human progesterone receptor B gene expression transfected in human T47D cells at 200 nM by RT-PCR; format: functional, cell-based
[9] = test system: T47D; experiment: Induction of morphology changes in human T47D cells expressing human progesterone receptor assessed as increase in cell height by confocal microscopy; format: functional, cell-based
[10] = test system: T47D; experiment: Reduction in cell proliferation of human T47D cells expressing human progesterone receptor by FACS method; format: functional, cell-based
[11] = test system: T47D; experiment: Increase in Ezrin mRNA expression in human T47D cells expressing human progesterone receptor by RT-PCR relative to untreated control; format: functional

Row | Structure (SMILES) | inhibition [1] | inhibition [2] | inhibition at 0.2 µM [3] | inhibition at 0.2 µM [4] | inhibition [5] | inhibition [6] | inhibition [7] | inhibition [8] | Activity [9] | Activity [10] | fold change (FC) [11] | inhibition [3] | inhibition [4] | Activity [11]
1 | Cc1cn(CC(=O)N(CCNC(=O)CN(CCNC(=O)CN(CCNCC(=O)N(CCNC(=O)CN(CCNC(=O)CN(CCNC(=O)CN(CCNC(=O)CN(CCNC(=O)CN(CCNC(=O)CN(CCNC(=O)CN(CCNC(=O)CN(CCNC(=O)CN(CCNC(=O)CN(CCNC(=O)CN(CCNC(=O)CNC(=O)[C@@H](N)CCCCN)C(=O)Cn2c(N)ccnc2=O)C(=O)Cn2cnc3c(N)ncnc32)C(=O)Cn2cc(C)c(=O)[nH]c2=O)C(=O)Cn2cnc3nc(N)[nH]c(=O)c32)C(=O)Cn2cnc3c(N)ncnc32)C(=O)Cn2c(N)ccnc2=O)C(=O)Cn2cnc3nc(N)[nH]c(=O)c32)C(=O)Cn2cnc3c(N)ncnc32)C(=O)Cn2c(N)ccnc2=O)C(=O)Cn2cc(C)c(=O)[nH]c2=O)C(=O)Cn2cnc3nc(N)[nH]c(=O)c32)C(=O)Cn2cnc3nc(N)[nH]c(=O)c32)C(=O)Cn2cnc3c(N)ncnc32)C(=O)Cn2c(N)ccnc2=O)CC(=O)NCCN(CC(=O)NCCN(CC(=O)NCCN(CC(=O)NCCN(CC(=O)N[C@@H](CCCCN)C(=O)O)C(=O)Cn2c(N)ccnc2=O)C(=O)Cn2c(N)ccnc2=O)C(=O)Cn2c(N)ccnc2=O)C(=O)Cn2c(N)ccnc2=O)c(=O)[nH]c1=O | Active | Active | – | – | – | – | – | – | – | – | – | – | – | –
2 | Cc1cn(CC(=O)N(CCNC(=O)CN(CCNC(=O)CNC(=O)[C@H](N)CCCCN)C(=O)Cn2c(N)ccnc2=O)CC(=O)NCCN(CC(=O)NCCN(CC(=O)NCCN(CC(=O)NCCN(CC(=O)NCCN(CC(=O)NCCN(CC(=O)NCCN(CC(=O)NCCN(CC(=O)NCCN(CC(=O)NCCN(C(=O)CNCCN(CC(=O)NCCN(CC(=O)NCCN(CC(=O)NCCN(CC(=O)NCCN(CC(=O)NCCN(CC(=O)NCCN(CC(=O)N[C@@H](CCCCN)C(=O)O)C(=O)Cn2c(N)ccnc2=O)C(=O)Cn2cnc3nc(N)[nH]c(=O)c32)C(=O)Cn2c(N)ccnc2=O)C(=O)Cn2c(N)ccnc2=O)C(=O)Cn2cc(C)c(=O)[nH]c2=O)C(=O)Cn2c(N)ccnc2=O)C(=O)Cn2cnc3c(N)ncnc32)C(=O)Cn2c(N)ccnc2=O)C(=O)Cn2cnc3nc(N)[nH]c(=O)c32)C(=O)Cn2cc(C)c(=O)[nH]c2=O)C(=O)Cn2c(N)ccnc2=O)C(=O)Cn2cnc3c(N)ncnc32)C(=O)Cn2c(N)ccnc2=O)C(=O)Cn2c(N)ccnc2=O)C(=O)Cn2cnc3c(N)ncnc32)C(=O)Cn2cnc3nc(N)[nH]c(=O)c32)C(=O)Cn2cc(C)c(=O)[nH]c2=O)c(=O)[nH]c1=O | inactive | inactive | – | – | – | – | – | – | – | – | – | – | – | –
3 | Cc1cn(CC(=O)N(CCNC(=O)CNC(=O)[C@@H](N)CCCCN)CC(=O)NCCN(CC(=O)NCCN(CC(=O)NCCN(CC(=O)NCCN(CC(=O)NCCN(CC(=O)NCCN(CC(=O)NCCN(CC(=O)NCCN(CC(=O)NCCN(CC(=O)NCCN(CC(=O)NCCN(CC(=O)NCCN(CC(=O)NCCN(CC(=O)NCCN(CC(=O)NCCN(CC(=O)NCCN(CC(=O)NCCN(CC(=O)NCCN(CC(=O)N[C@@H](CCCCN)C(=O)O)C(=O)Cn2ccc(N)nc2=O)C(=O)Cn2cnc3c(=O)[nH]c(N)nc32)C(=O)Cn2cnc3c(=O)[nH]c(N)nc32)C(=O)Cn2cnc3c(N)ncnc32)C(=O)Cn2cnc3c(N)ncnc32)C(=O)Cn2cnc3c(=O)[nH]c(N)nc32)C(=O)Cn2cc(C)c(=O)[nH]c2=O)C(=O)Cn2ccc(N)nc2=O)C(=O)Cn2cnc3c(=O)[nH]c(N)nc32)C(=O)Cn2cnc3c(N)ncnc32)C(=O)Cn2cnc3c(=O)[nH]c(N)nc32)C(=O)Cn2cc(C)c(=O)[nH]c2=O)C(=O)Cn2ccc(N)nc2=O)C(=O)Cn2cnc3c(N)ncnc32)C(=O)Cn2cnc3c(=O)[nH]c(N)nc32)C(=O)Cn2cc(C)c(=O)[nH]c2=O)C(=O)Cn2cnc3c(N)ncnc32)C(=O)Cn2ccc(N)nc2=O)c(=O)[nH]c1=O | – | – | 75% | 75% | Active | Active | inactive | inactive | Active | Active | 6 | – | – | –
4 | Cc1cn(CC(=O)N(CCNC(=O)CN(CCNC(=O)CN(CCNC(=O)CN(CCNC(=O)CN(CCNC(=O)CN(CCNC(=O)CN(CCNC(=O)CN(CCNC(=O)CN(CCNC(=O)CN(CCNC(=O)CN(CCNC(=O)CN(CCNC(=O)CN(CCNC(=O)CN(CCNC(=O)CN(CCNC(=O)CNC(=O)[C@@H](N)CCCCN)C(=O)Cn2ccc(N)nc2=O)C(=O)Cn2ccc(N)nc2=O)C(=O)Cn2cnc3c(N)ncnc32)C(=O)Cn2cnc3c(=O)[nH]c(N)nc32)C(=O)Cn2cc(C)c(=O)[nH]c2=O)C(=O)Cn2ccc(N)nc2=O)C(=O)Cn2ccc(N)nc2=O)C(=O)Cn2cnc3c(N)ncnc32)C(=O)Cn2ccc(N)nc2=O)C(=O)Cn2cnc3c(N)ncnc32)C(=O)Cn2cnc3c(=O)[nH]c(N)nc32)C(=O)Cn2ccc(N)nc2=O)C(=O)Cn2cc(C)c(=O)[nH]c2=O)C(=O)Cn2cnc3c(=O)[nH]c(N)nc32)CC(=O)NCCN(CC(=O)NCCN(CC(=O)NCCN(CC(=O)NCCN(CC(=O)N[C@@H](CCCCN)C(=O)O)C(=O)Cn2cc(C)c(=O)[nH]c2=O)C(=O)Cn2ccc(N)nc2=O)C(=O)Cn2cnc3c(N)ncnc32)C(=O)Cn2ccc(N)nc2=O)c(=O)[nH]c1=O | – | – | 75% | 75% | Active | Active | inactive | inactive | Active | Active | 3.5 | – | – | –
5 | Cc1cn(CC(=O)N(CCNC(=O)CNC(=O)[C@@H](N)CCCCN)CC(=O)NCCN(CC(=O)NCCN(CC(=O)NCCN(CC(=O)NCCN(CC(=O)NCCN(CC(=O)NCCN(CC(=O)NCCN(CC(=O)NCCN(CC(=O)NCCN(CC(=O)NCCN(CC(=O)NCCN(CC(=O)NCCN(CC(=O)NCCN(CC(=O)NCCN(CC(=O)NCCN(CC(=O)NCCN(CC(=O)NCCN(CC(=O)NCCN(CC(=O)N[C@@H](CCCCN)C(=O)O)C(=O)Cn2ccc(N)nc2=O)C(=O)Cn2cnc3c(=O)[nH]c(N)nc32)C(=O)Cn2cnc3c(=O)[nH]c(N)nc32)C(=O)Cn2cc(C)c(=O)[nH]c2=O)C(=O)Cn2cnc3c(N)ncnc32)C(=O)Cn2cnc3c(=O)[nH]c(N)nc32)C(=O)Cn2cc(C)c(=O)[nH]c2=O)C(=O)Cn2cc(C)c(=O)[nH]c2=O)C(=O)Cn2cnc3c(=O)[nH]c(N)nc32)C(=O)Cn2cnc3c(N)ncnc32)C(=O)Cn2cnc3c(=O)[nH]c(N)nc32)C(=O)Cn2ccc(N)nc2=O)C(=O)Cn2ccc(N)nc2=O)C(=O)Cn2cnc3c(N)ncnc32)C(=O)Cn2cnc3c(=O)[nH]c(N)nc32)C(=O)Cn2ccc(N)nc2=O)C(=O)Cn2cnc3c(N)ncnc32)C(=O)Cn2ccc(N)nc2=O)c(=O)[nH]c1=O | – | – | – | – | – | – | inactive | inactive | inactive | inactive | – | inactive | inactive | inactive
6 | Cc1cn(CC(=O)N(CCNC(=O)CN(CCNC(=O)CN(CCNC(=O)CN(CCNC(=O)CN(CCNC(=O)CN(CCNC(=O)CNC(=O)[C@@H](N)CCCCN)C(=O)Cn2cc(C)c(=O)[nH]c2=O)C(=O)Cn2cnc3c(=O)[nH]c(N)nc32)C(=O)Cn2cnc3c(N)ncnc32)C(=O)Cn2cnc3c(=O)[nH]c(N)nc32)C(=O)Cn2ccc(N)nc2=O)CC(=O)NCCN(CC(=O)NCCN(CC(=O)NCCN(CC(=O)NCCN(CC(=O)NCCN(CC(=O)NCCN(CC(=O)NCCN(CC(=O)NCCN(CC(=O)NCCN(CC(=O)NCCN(CC(=O)NCCN(CC(=O)NCCN(CC(=O)NCCN(CC(=O)NC(CCCCN)C(=O)O)C(=O)Cn2cc(C)c(=O)[nH]c2=O)C(=O)Cn2cnc3c(=O)[nH]c(N)nc32)C(=O)Cn2cnc3c(=O)[nH]c(N)nc32)C(=O)Cn2cnc3c(=O)[nH]c(N)nc32)C(=O)Cn2cnc3c(N)ncnc32)C(=O)Cn2cnc3c(N)ncnc32)C(=O)Cn2cnc3c(N)ncnc32)C(=O)Cn2ccc(N)nc2=O)C(=O)Cn2cnc3c(=O)[nH]c(N)nc32)C(=O)Cn2cnc3c(=O)[nH]c(N)nc32)C(=O)Cn2cnc3c(N)ncnc32)C(=O)Cn2cnc3c(N)ncnc32)C(=O)Cn2cnc3c(=O)[nH]c(N)nc32)c(=O)[nH]c1=O (stereo partly drawn) | – | – | 75% | 75% | Active | Active | inactive | inactive | Active | Active | 8 | – | – | –
